Assays:
[1] = system: pentagastrin-stimulated acid secretion of perfused rat stomachs; assay: Antisecretory action in perfused rat stomachs (pentagastrin-stimulated acid secretion in vivo); settings: anesthetized CD rat, female, dose 3 μmol/kg i.v., perfused stomach
From the text: Testing of the Antisecretory Action in Perfused Rat Stomachs
The influence of the compounds according to the invention after intravenous administration on the pentagastrin-stimulated acid secretion of perfused rat stomachs in vivo is shown in Table A which follows.
The abdomen of anesthetized rates (CD rat, female, 200-250 g; 1.5 g/kg i.m. urethane) was opened after tracheotomy by means of a median upper abdominal incision and a PVC catheter was fixed transorally in the esophagus and another via the pylorus such that the ends of the tubes just projected into the gastric lumen. The catheter leading from the pylorus led outwards into the right abdominal wall through a side opening.
After thorough rinsing (about 50-100 ml), warm physiological NcCl solution (37° C.) was continuously passed through the stomach (0.5 ml/min, pH 6.8-6.9, Braun-Unita I). The pH (pH meter 632, glass electrode EA 147; φ=5 mm, Metrohm) and, by titration with a freshly prepared 0.01 N NaOH solution to pH 7 (dosimat 665 Metrohm), the secreted HCl were determined in the effluent, in each case collected at an interval of 15 minutes.
The gastric secretion was stimulated by continuous infusion of […] (=1.65 ml/h) of i.v. pentagastrin (left femoral vein) about 30 min after the end of the operation (i.e. after determination of 2 preliminary fractions). […]

melting point: 178 to 180 °C
SMILES: Cc1nc2c3c(ccn2c1C)[C@@H](OCC(F)(F)F)[C@H](O)[C@@H](c1ccccc1)N3 [Example 1, (7R, 8R, 9R)-2,3-Dimethyl-8-hydroxy-7-(2,2,2-trifluoroethoxy)-9-phenyl-7,8,9,10-tetra-hydroimidazo[1,2-h][1,7]naphthyridine]
Inhibition of acid secretion [1]: 100%
